Assay results published in US20090062122A1, “Cotton Growth Regulator” (FMC Corporation, priority 2006, published 2009).

What was measured:
Format in all cases: in vivo
cotton, variety D&PL 555 [1] = assay: % defoliation of cotton plants, field trial
Description: (§1) The trial was performed on cotton, variety D&PL 555. The formulated test compounds were diluted to the appropriate concentrations with water to which a crop oil concentrate (1% to 2% v/v) or a non-ionic surfactant (0.25% v/v) was added. The application of the test composition as a cotton plant growth regulator was performed using pressurized, over-the-top spray equipment consisting of a research scale boom sprayer. Deposit of the test composition was primarily to the top of the cotton plants, minimizing spray deposition to lower branches, leaves and fruit. The finished spray volume was 10 gallons per acre, with sprayer nozzle design, orientation and nozzle pressures chosen to prevent spray drift. Applications were made at first sign of cotton boll opening and at 15%, 20% and 40% open bolls.
(§2) The experimental design used randomized plots with 1 to 4 treatment rates of test composition and from 1 to 10 replications depending on the test (sees tables below). The size of each experimental plot was about 15 m^2. Testing was performed in Texas, North Carolina, Mississippi and Georgia.
(§3) Percent desiccation, percent defoliation, percent terminal control and percent open bolls were evaluated at 7 and 14 days after application (DAA) of the test composition. Inspection of cotton plants for insect control of armyworm larvae was performed at 2 DAA and insect damage to bolls was performed at the time of harvest
Defoliation refers to removal of leaves. Percent defoliation rating approximates the proportion of leaves of all sizes shed per 100 leaves present prior to application of the cotton growth regulator compound. An evaluation of the foliage in the untreated check plots was first undertaken. Then the test plots were individually evaluated. The percent of leaves dropped by the plants in the treated plot was determined using observations within the plot and comparisons to foliage in the untreated plot.
(§4) The results, shown as the mean of the indicated number of replications, were compared with results observed in the same trials with an untreated control.

cotton, variety D&PL 555 [2] = assay: % desiccation of cotton leaves, field trial
Description: as §1, §2, §3
Desiccation refers to leaves or portions of leaves dried to debris following tissue death. […] An evaluation of the condition of leaves in the untreated check plots were observed. Then the test plots were individually evaluated. The percent of all leaves completely or partially desiccated by the test application were recorded, based upon live leaves and leaf debris within the test plot relative to foliage present in the untreated plot.
as §4

cotton, variety D&PL 555 [3] = assay: % open bolls of cotton plants, field trial; conditions: 14 DAA
Description: as §1, §2, §3
Open bolls refers to the number of bolls which have opened per 100 cotton plants. Fifty cotton plants in two representative locations within a treatment plot were chosen to examine for open bolls. The percent of open bolls was calculated by dividing the number of open bolls by the total number of bolls on the plants multiplied by 100.
as §4

Bollworm (Heliothis zea) = assay: % bolls damaged by bollworm at harvest; conditions: 15% open boll application, 0.006 lb ai/a, 1 replicate
Description: as §1, with “bolls. […]” for “bolls.”
(§5) Percent desiccation, percent defoliation, percent terminal control and percent open bolls were evaluated at 7 and 14 days after application (DAA) of the test composition. […]
(§6) Bollworm (Heliothis zea) and stinkbug (Euschistus servus) insect control was measured by examining the bolls of 100 cotton plants, 50 cotton plants in two representative locations with in the treatment plot, for injury caused by either bollworms or by stinkbugs. The percent damage was calculated by dividing the number of damaged bolls by the total number of bolls on the plants multiplied by 100. […]

[4] = system: Brown Stinkbug (Euschistus servus); assay: % bolls damaged by brown stinkbug at harvest; conditions: 15% open boll application, 0.006 lb ai/a, 1 replicate
Description: as §1, with “bolls. […]” for “bolls.”
as §5, §6

[5] = system: Fall Armyworms (Spodoptera frugiperda); assay: Number of fall armyworms on cotton plants; conditions: 15% open boll application; 0.004 lb ai/a; 2 DAA; 3 replicates; insects per plant
Description: as §1
The experimental design used randomized plots with 1 to 4 treatment rates of test composition and from 1 to 10 replications depending on the test (sees tables below). […]
as §5
The presence of fall armyworms (Spodoptera frugiperda) was determined by examining 20 cotton plants within each of 3 replicates of the treatment plots for fall armyworm. The number of insects per plant was calculated by dividing the total number of insects found by 60. […]

cotton, variety D&PL 555 [6] = assay: Cotton yield; conditions: 5 replicates
Description: as §1, §2, §4

[7] = 15% open boll application, 0.004 lb ai/a, 14 DAA, 10 replicates
[8] = 15% open boll application, 0.006 lb ai/a, 14 DAA, 10 replicates
[9] = 15% open boll application, 0.008 lb ai/a, 14 DAA, 10 replicates
[10] = 15% open boll application, 0.01 lb ai/a, 14 DAA, 10 replicates
[11] = 20% open boll application, 0.002 lb ai/a, 7 DAA, 3 replicates
[12] = 20% open boll application, 0.004 lb ai/a, 7 DAA, 3 replicates
[13] = 20% open boll application, 0.006 lb ai/a, 7 DAA, 3 replicates
[14] = 20% open boll application, 0.008 lb ai/a, 7 DAA, 3 replicates
[15] = 40% open boll application, 0.004 lb ai/a, 7 DAA, 1 replicate
[16] = 40% open boll application, 0.006 lb ai/a, 7 DAA, 1 replicate
[17] = 40% open boll application, 0.008 lb ai/a, 7 DAA, 1 replicate
[18] = first open boll application, 0.002 lb ai/a, 7 DAA, 4 replicates
[19] = first open boll application, 0.002 lb ai/a, 14 DAA, 4 replicates
[20] = first open boll application, 0.004 lb ai/a, 7 DAA, 4 replicates
[21] = first open boll application, 0.004 lb ai/a, 14 DAA, 4 replicates
[22] = first open boll application, 0.006 lb ai/a, 7 DAA, 4 replicates
[23] = first open boll application, 0.006 lb ai/a, 14 DAA, 4 replicates
[24] = first open boll application, 0.008 lb ai/a, 7 DAA, 4 replicates
[25] = first open boll application, 0.008 lb ai/a, 14 DAA, 4 replicates

In the case of `CCOC(=O)C(Cl)Cc1cc(-n2nc(C)n(C(F)F)c2=O)c(F)cc1Cl` (stereo not drawn) [carfentrazone-ethyl, ethyl 2-chloro-3-[2-chloro-5-(4-difluoromethyl-3-methyl-5-oxo-4,5-dihydro-[1,2,4]-triazol-1-yl)-4-fluorophenyl]propionate], the “% Defoliation” value (cotton, variety D&PL 555 [1]; [7]) is reported as 28%, the “% Defoliation” value (cotton, variety D&PL 555 [1]; [8]) is reported as 33% and the “% Defoliation” value (cotton, variety D&PL 555 [1]; [9]) is reported as 39%. For the same compound, the “% Defoliation” value (cotton, variety D&PL 555 [1]; [10]) was 41%, the “% Defoliation” value (cotton, variety D&PL 555 [1]; [11]) was 9% and the “% Defoliation” value (cotton, variety D&PL 555 [1]; 20% open boll application, 0.002 lb ai/a, 14 DAA, 3 replicates) was 17%. The “% Defoliation” value (cotton, variety D&PL 555 [1]; [12]) was 25%, the “% Defoliation” value (cotton, variety D&PL 555 [1]; 20% open boll application, 0.004 lb ai/a, 14 DAA, 3 replicates) was 38% and the “% Defoliation” value (cotton, variety D&PL 555 [1]; [13]) was 22%. For the same compound, the “% Defoliation” value (cotton, variety D&PL 555 [1]; 20% open boll application, 0.006 lb ai/a, 14 DAA, 3 replicates) was 34%, the “% Defoliation” value (cotton, variety D&PL 555 [1]; [14]) was 24% and the “% Defoliation” value (cotton, variety D&PL 555 [1]; 20% open boll application, 0.008 lb ai/a, 14 DAA, 3 replicates) was 36%. For the same compound, the “% Defoliation” value (cotton, variety D&PL 555 [1]; [15]) was 61%, the “% Defoliation” value (cotton, variety D&PL 555 [1]; [16]) was 58% and the “% Defoliation” value (cotton, variety D&PL 555 [1]; [17]) was 67%. For the same compound, the “% Defoliation” value (cotton, variety D&PL 555 [1]; [18]) was 6%, the “% Defoliation” value (cotton, variety D&PL 555 [1]; [19]) was 15% and the “% Defoliation” value (cotton, variety D&PL 555 [1]; [20]) was 12%. For the same compound, the “% Defoliation” value (cotton, variety D&PL 555 [1]; [21]) was 25%, the “% Defoliation” value (cotton, variety D&PL 555 [1]; [22]) was 13% and the “% Defoliation” value (cotton, variety D&PL 555 [1]; [23]) was 28%. For the same compound, the “% Defoliation” value (cotton, variety D&PL 555 [1]; [24]) was 12%, the “% Defoliation” value (cotton, variety D&PL 555 [1]; [25]) was 23% and the “% Desiccation” value (cotton, variety D&PL 555 [2]; [7]) was 29%. The “% Desiccation” value (cotton, variety D&PL 555 [2]; [8]) was 33%, the “% Desiccation” value (cotton, variety D&PL 555 [2]; [9]) was 37% and the “% Desiccation” value (cotton, variety D&PL 555 [2]; [10]) was 38%. For the same compound, the “% Desiccation” value (cotton, variety D&PL 555 [2]; [11]) was 8%, the “% Desiccation” value (cotton, variety D&PL 555 [2]; 20% open boll application, 0.002 lb ai/a, 14 DAA, 2 replicates) was 13% and the “% Desiccation” value (cotton, variety D&PL 555 [2]; [12]) was 17%. The “% Desiccation” value (cotton, variety D&PL 555 [2]; 20% open boll application, 0.004 lb ai/a, 14 DAA, 2 replicates) was 23%, the “% Desiccation” value (cotton, variety D&PL 555 [2]; [13]) was 21% and the “% Desiccation” value (cotton, variety D&PL 555 [2]; 20% open boll application, 0.006 lb ai/a, 14 DAA, 2 replicates) was 22%. For the same compound, the “% Desiccation” value (cotton, variety D&PL 555 [2]; [14]) was 24%, the “% Desiccation” value (cotton, variety D&PL 555 [2]; 20% open boll application, 0.008 lb ai/a, 14 DAA, 2 replicates) was 22% and the “% Desiccation” value (cotton, variety D&PL 555 [2]; [15]) was 6%. The “% Desiccation” value (cotton, variety D&PL 555 [2]; [16]) was 5%, the “% Desiccation” value (cotton, variety D&PL 555 [2]; [17]) was 9% and the “% Desiccation” value (cotton, variety D&PL 555 [2]; [18]) was 15%. The “% Desiccation” value (cotton, variety D&PL 555 [2]; [19]) was 18%, the “% Desiccation” value (cotton, variety D&PL 555 [2]; [20]) was 25% and the “% Desiccation” value (cotton, variety D&PL 555 [2]; [21]) was 25%. For the same compound, the “% Desiccation” value (cotton, variety D&PL 555 [2]; [22]) was 28%, the “% Desiccation” value (cotton, variety D&PL 555 [2]; [23]) was 28% and the “% Desiccation” value (cotton, variety D&PL 555 [2]; [24]) was 33%. The “% Desiccation” value (cotton, variety D&PL 555 [2]; [25]) was 32%, the “% Open Bolls” value (cotton, variety D&PL 555 [3]; 15% open boll application, 0.004 lb ai/a, 10 replicates) was 59% and the “% Open Bolls” value (cotton, variety D&PL 555 [3]; 15% open boll application, 0.006 lb ai/a, 10 replicates) was 61%. The “% Open Bolls” value (cotton, variety D&PL 555 [3]; 15% open boll application, 0.008 lb ai/a, 10 replicates) was 64%, the “% Open Bolls” value (cotton, variety D&PL 555 [3]; 15% open boll application, 0.01 lb ai/a, 10 replicates) was 63% and the “% Open Bolls” value (cotton, variety D&PL 555 [3]; 20% open boll application, 0.002 lb ai/a, 3 replicates) was 62%. The “% Open Bolls” value (cotton, variety D&PL 555 [3]; 20% open boll application, 0.004 lb ai/a, 3 replicates) was 62%, the “% Open Bolls” value (cotton, variety D&PL 555 [3]; 20% open boll application, 0.006 lb ai/a, 3 replicates) was 67% and the “% Open Bolls” value (cotton, variety D&PL 555 [3]; 20% open boll application, 0.008 lb ai/a, 3 replicates) was 62%. For the same compound, the “% Open Bolls” value (cotton, variety D&PL 555 [3]; first open boll application, 0.002 lb ai/a, 3 replicates) was 61%, the “% Open Bolls” value (cotton, variety D&PL 555 [3]; first open boll application, 0.004 lb ai/a, 3 replicates) was 58% and the “% Open Bolls” value (cotton, variety D&PL 555 [3]; first open boll application, 0.006 lb ai/a, 3 replicates) was 63%. The “% Open Bolls” value (cotton, variety D&PL 555 [3]; first open boll application, 0.008 lb ai/a, 3 replicates) was 68%, the “% Bolls Damaged by Bollworm (Heliothis zea)” value (Bollworm (Heliothis zea)) was 1.75% and the “% Bolls Damaged by Brown Stinkbug (Euschistus servus)” value [4] was 2.25%. The “Number of insects (Fall Armyworms, Spodoptera frugiperda)” value [5] was 0, the Cotton yield (cotton, variety D&PL 555 [6]; 20% open bolls application, 0.002 lb ai/a) was 1168 Lb lint/Acre and the Cotton yield (cotton, variety D&PL 555 [6]; 20% open bolls application, 0.004 lb ai/a) was 1128 Lb lint/Acre. It also gave a Cotton yield (cotton, variety D&PL 555 [6]; 20% open bolls application, 0.006 lb ai/a) of 1107 Lb lint/Acre, a Cotton yield (cotton, variety D&PL 555 [6]; 20% open bolls application, 0.008 lb ai/a) of 1178 Lb lint/Acre and a Cotton yield (cotton, variety D&PL 555 [6]; first open boll application, 0.002 lb ai/a) of 1172 Lb lint/Acre. For the same compound, the Cotton yield (cotton, variety D&PL 555 [6]; first open boll application, 0.004 lb ai/a) was 1004 Lb lint/Acre, the Cotton yield (cotton, variety D&PL 555 [6]; first open boll application, 0.006 lb ai/a) was 1152 Lb lint/Acre and the Cotton yield (cotton, variety D&PL 555 [6]; first open boll application, 0.008 lb ai/a) was 1167 Lb lint/Acre.
